Data: article PMC11257039, “VCP activator reverses nuclear proteostasis defects and enhances TDP-43 aggregate clearance in multisystem proteinopathy models” (The Journal of Clinical Investigation, 2024)

Test system: WT HeLa cells expressing TDP-4FL
Test: Immunofluorescence of TDP-4FL inclusion morphology, WT HeLa
Format: cell-based
Conditions: for TDP-4FL inclusion size and morphology upon proteasome inhibition: 4 μM MG132, 1 μM ixazomib or 1 μM epoxomicin, 3 or 6 hours
Experimental: HeLa Cells were plated onto glass coverslips and transfected with TDP-4FL using Fugene HD for 24 hours. Cells were fixed with 4% paraformaldehyde (Electron Microscopy Sciences), permeabilized with 0.1% Triton-X (Thermo Fisher Scientific), and blocked with 2% FBS DPBS. Primary antibodies were diluted in 2% FBS DPBS. Cells were stained with 300 nM DAPI, and coverslips were mounted onto glass slides using ProLong Glass Antifade Mountant (Thermo Fisher Scientific). Confocal images were obtained using a Leica TCS SPE laser scanning confocal microscope.
(A) High power magnification immunofluorescence confocal images of HeLa cells expressing TDP-4FL stained for myc-TDP (green) Scale bar, 5 µm. […]
(C) Representative confocal microscopy immunofluorescence confocal images of HeLa cells […]
yellow represent cells that were categorized as anisosome morphology. Nuclei outline in white represent cells that were categorized as aggregate morphology. Cells with approximately more than 50% anisosome inclusions were categorized as anisosome morphology whereas cells with approximately more than 50% aggregate-like inclusions were categorized as aggregate morphology. Binucleate cells were excluded from the total counts. Scale bar, 10 µm.
(1 picture or pasted object on this page, not shown here)

Row | Compound | TDP-4FL inclusion size and morphology upon proteasome inhibition | TDP-4FL aggregate formation | TDP-4FL inclusion morphology after recovery
1 | CC[C@H](C)[C@H](NC(=O)[C@H]([C@@H](C)CC)N(C)C(C)=O)C(=O)N[C@H](C(=O)N[C@@H](CC(C)C)C(=O)[C@@]1(C)CO1)[C@@H](C)O [epoxomicin] | generating larger TDP-4FL inclusions |  | 
2 | CC(C)C[C@H](NC(=O)CNC(=O)c1cc(Cl)ccc1Cl)B(O)O [ixazomib] | generating larger TDP-4FL inclusions |  | 
3 | Cc1cc2c(C(N)=O)cccc2n1-c1nc2c(c(NCc3ccccc3)n1)COCC2 [CB5083] |  | no effect on TDP-4FL aggregate formation | residual irregularly shaped intranuclear TDP-4FL aggregates
